Experimental data as given in patent US20220289691A1, “5-AMINO-SUBSTITUTED PYRAZOLES AND TRIAZOLES AS PEST CONTROL AGENTS” (Bayer Aktiengesellschaft, priority 2019, published 2022).

Experiments:
Format in all cases: in vivo
Ctenocephalides felis [1] = assay: Ctenocephalides felis in vitro contact test with adult cat fleas; conditions: 5 μg/cm^2 (=500 g of ai/ha), after 48 h, read-out: efficacy (fleas dead or moribund)
Procedure: Ctenocephalides felis—In Vitro Contact Tests with Adult Cat Fleas
For the coating of the test tubes, 9 mg of active compound are first dissolved in 1 ml of acetone p.a. and then diluted to the desired concentration with acetone p.a. 250 μl of the solution are distributed homogeneously on the inner walls and the base of a 25 ml glass tube by turning and rocking on an orbital shaker (rocking rotation at 30 rpm for 2 h). With 900 ppm of active compound solution and internal surface area 44.7 cm^2, given homogeneous distribution, an area-based dose of 5 μg/cm^2 is achieved.
After the solvent has evaporated off, the tubes are populated with 5-10 adult cat fleas (Ctenocephalides felis), sealed with a perforated plastic lid and incubated in a horizontal position at room temperature and ambient humidity. After 48 h, efficacy is determined. To this end, the tubes are stood upright and the fleas are knocked to the base of the tube. Fleas which remain motionless at the base or move in an uncoordinated manner are considered to be dead or moribund.
100% efficacy means that all the fleas were dead or moribund. 0% efficacy means that no fleas were harmed.

Diabrotica balteata = Diabrotica balteata spray test; conditions: 168 h, beetle larvae on wheat, after 7 days, read-out: efficacy (wheat plant growth); for pest or weed control at 100 g/ha: 100 g/ha (=32 μg/cavity); for pest or weed control at 500 g/ha: 500 g/ha (=160 μg/cavity)
How it was run: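 Germinated wheat seedlings in agar multiwell plates were sprayed with compound in acetone/DMF with emulsifier-containing water, then infested with 10-20 Diabrotica balteata larvae. After 7 days, efficacy (%) scored by plant growth: 100% equals untreated, uninfested control, 0% no plants grown.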

Spodoptera frugiperda = Spodoptera frugiperda spray test; conditions: foliar, 168 h, maize leaf discs, after 7 days, read-out: efficacy (caterpillars killed)
How it was run: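 Compound was dissolved in acetone/dimethylformamide and diluted with water containing 1000 ppm alkylaryl polyglycol ether emulsifier to test concentrations. Maize leaf discs were sprayed, dried and infested with fall armyworm caterpillars. Efficacy (% caterpillars killed) was scored after 7 days.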

Ctenocephalides felis [2] = assay: Ctenocephalides felis oral test; conditions: 48 h, 100 ppm in citrated cattle blood, adult cat fleas, after 2 days, read-out: efficacy (kill)
Procedure: Ctenocephalides felis—Oral Test
(§1) Solvent: Dimethyl Sulfoxide
To produce a suitable active compound formulation, 10 mg of active compound are mixed with 0.5 ml of dimethyl sulfoxide. Dilution with citrated cattle blood gives the desired concentration.
About 20 unfed adult cat fleas (Ctenocephalides felis) are placed into a chamber which is closed at the top and bottom with gauze. A metal cylinder whose bottom end is closed with parafilm is placed onto the chamber. The cylinder contains the blood/active compound formulation, which can be imbibed by the fleas through the parafilm membrane.
After 2 days, the kill in % is determined. 100% means that all of the fleas have been killed; 0% means that none of the fleas have been killed.

Meloidogyne incognita = Meloidogyne incognita test; conditions: 336 h, lettuce, after 14 days, read-out: nematicidal efficacy (formation of galls)
Procedure: Meloidogyne incognita Test Solvent: 125.0 parts by weight of acetone
To produce a suitable active compound formulation, 1 part by weight of active compound is mixed with the stated amount of solvent and the concentrate is diluted to the desired concentration with water.
Vessels are filled with sand, active compound solution, an egg/larvae suspension of the southern root-knot nematode (Meloidogyne incognita) and lettuce seeds. The lettuce seeds germinate and the plants develop. The galls develop on the roots.
After 14 days, the nematicidal efficacy in % is determined by the formation of galls. 100% means that no galls were found; 0% means that the number of galls on the treated plants corresponds to the untreated control.

Phaedon cochleariae = Phaedon cochleariae spray test; conditions: foliar, 168 h, Chinese cabbage leaf discs, after 7 days, read-out: efficacy (beetle larvae killed)
Procedure: Phaedon cochleariae—Spray Test Solvent: 78.0 parts by weight of acetone • • 1.5 parts by weight of dimethylformamide Emulsifier: alkylaryl polyglycol ether
To produce a suitable active compound formulation, 1 part by weight of active compound is dissolved using the stated parts by weight of solvent and made up with water containing an emulsifier concentration of 1000 ppm until the desired concentration is attained. To produce further test concentrations, the formulation is diluted with emulsifier-containing water.
Discs of Chinese cabbage leaves (Brassica pekinensis) are sprayed with an active compound formulation of the desired concentration and, after drying, populated with larvae of the mustard beetle (Phaedon cochleariae).
After 7 days, the efficacy in % is determined. 100% means that all the beetle larvae have been killed; 0% means that no beetle larvae have been killed.

Musca domestica = Musca domestica test; conditions: 100 ppm, adult houseflies, after 2 days
Procedure: as §1
To produce a suitable active compound formulation, 10 mg of active compound are mixed with 0.5 ml of dimethyl sulfoxide, and the concentrate is diluted with water to the desired concentration.
Vessels containing a sponge treated with sugar solution and the desired concentration of active compound formulation are populated with 10 adult houseflies (Musca domestica).
After 2 days, the kill in % is determined. 100% means that all of the flies have been killed; 0% means that none of the flies have been killed.

Boophilus microplus = Boophilus microplus injection test; conditions: 20 μg/animal, injection into engorged adult female cattle ticks, after 7 days
Procedure: Boophilus microplus—Injection Test
as §1
To produce a suitable active compound formulation, 10 mg of active compound are mixed with 0.5 ml of solvent and the concentrate is diluted to the desired concentration with solvent.
1 μl of the active compound solution is injected into the abdomen of 5 engorged adult female cattle ticks (Boophilus microplus). The animals are transferred into dishes and kept in a climate-controlled room.
Efficacy is assessed after 7 days by laying of fertile eggs. Eggs which are not visibly fertile are stored in a climate-controlled cabinet until the larvae hatch after about 42 days. An efficacy of 100% means that none of the ticks has laid any fertile eggs; 0% means that all the eggs are fertile.

| Structure (SMILES) | pest or weed control at 5 µg/cm2 (Ctenocephalides felis [1]) [%] | pest or weed control at 100 g/ha (Diabrotica balteata) [%] | pest or weed control at 100 g/ha (Spodoptera frugiperda) [%] | pest or weed control at 100 ppm (Ctenocephalides felis [2]) [%] | pest or weed control at 20 ppm (Meloidogyne incognita) [%] | pest or weed control at 100 g/ha (Phaedon cochleariae) [%] | further results |
| --- | --- | --- | --- | --- | --- | --- | --- |
| CNc1nc(-c2ccc(C=NN=C3SCC(=O)N3c3cc(OC)ccc3C(C)C)cc2)nn1-c1ccc(OC(F)(F)F)cc1 [Compound I-090] | 100 | 100 | 100 |  |  |  |  |
| CC(=O)Nc1nc(-c2ccc(C(C)=NNC(=S)Nc3ccccc3C(C)C)cc2)nn1-c1ccc(OC(F)(F)F)cc1 [Compound I-017] |  |  | 100 | 95 | 90 | 100 |  |
| CO[C@@H]1[C@@H](OC)[C@H](C)O[C@@H](OC(=O)Nc2ccc(-c3nc(NC(C)=O)n(-c4ccc(OC(F)(F)C(F)(F)F)cc4)n3)cc2)[C@@H]1OC [Compound I-008] |  |  | 100 | 100 |  | 100 | efficacy (kill) (Musca domestica): 80%; pest or weed control at 500 g/ha (Phaedon cochleariae): 100%; pest or weed control at 500 g/ha (Spodoptera frugiperda): 100% |
| CCO[C@@H]1[C@@H](OC)[C@H](C)O[C@@H](OC(=O)Nc2ccc(-c3nc(NC(=O)CC)n(-c4ccc(OC(F)(F)C(F)(F)F)cc4)n3)cc2)[C@@H]1OC [Compound I-005] |  |  | 100 | 100 |  | 100 | efficacy (laying of fertile eggs) (Boophilus microplus): 90%; efficacy (kill) (Musca domestica): 80%; pest or weed control at 500 g/ha (Phaedon cochleariae): 100%; pest or weed control at 500 g/ha (Spodoptera frugiperda): 100% |
| CCO[C@@H]1[C@@H](OC)[C@H](C)O[C@@H](OC(=O)Nc2ccc(-c3nc(NC(=O)CC)n(-c4ccc(OC(F)(F)F)cc4)n3)cc2)[C@@H]1OC [Compound I-007] |  |  |  | 90 |  | 100 | efficacy (laying of fertile eggs) (Boophilus microplus): 100%; pest or weed control at 500 g/ha (Phaedon cochleariae): 100%; pest or weed control at 500 g/ha (Spodoptera frugiperda): 100% |
| CCC(=O)Nc1nc(-c2ccc(NC(=O)O[C@@H]3O[C@@H](C)[C@H](OC)[C@@H](OC)[C@H]3OC)cc2)nn1-c1ccc(OC(F)(F)C(F)(F)F)cc1 [Compound I-003] |  |  | 100 | 100 |  | 100 | efficacy (laying of fertile eggs) (Boophilus microplus): 100%; pest or weed control at 500 g/ha (Phaedon cochleariae): 100%; pest or weed control at 500 g/ha (Spodoptera frugiperda): 100% |
| CNc1nc(-c2ccc(NC(=O)N=C3SCC(=O)N3c3cc(OC)ccc3C(C)C)cc2)nn1-c1ccc(OC(F)(F)C(F)(F)F)cc1 [Compound I-083] | 90 | 100 | 100 |  |  |  |  |
| CC(=O)Nc1nc(-c2ccc(C=NN=C3SCC(=O)N3c3ccccc3C(C)C)cc2)nn1-c1ccc(OC(F)(F)F)cc1 [Compound I-032] | 80 |  | 100 |  |  |  | pest or weed control at 125 g/ha (Diabrotica balteata; 125 g/ha (=40 μg/cavity)): 100%; pest or weed control at 500 g/ha (Diabrotica balteata): 100% |
| CNc1nc(-c2ccc(C=NNC(=S)Nc3ccccc3C(C)C)cc2Cl)nn1-c1ccc(OC(F)(F)F)cc1 [Compound I-108] |  | 100 | 100 |  | 90 |  |  |
| CC(C)c1ccccc1NC(=S)NN=Cc1ccc(-c2nc(NC3CC3)n(-c3ccc(OC(F)(F)F)cc3)n2)cc1 [Compound I-051] |  | 100 | 100 |  | 90 |  | pest or weed control at 500 g/ha (Diabrotica balteata): 100% |
| CNc1nc(-c2cc(F)c(C=NNC(=S)Nc3ccccc3C(C)C)c(F)c2)nn1-c1ccc(OC(F)(F)F)cc1 [Compound I-107] |  | 100 | 100 |  | 90 |  |  |
| CC(=O)Nc1nc(-c2ccc(C=NNC(=S)Nc3ccccc3C(C)C)cc2)nn1-c1ccc(OC(F)(F)F)cc1 [Compound I-009] | 100 |  | 100 | 100 |  | 100 |  |
| CNc1nc(-c2ccc(C=NN=c3scc(C)n3-c3ccccc3C(C)C)cc2)nn1-c1ccc(OC(F)(F)F)cc1 [Compound I-097, 3-[4-({[3-(2-isopropylphenyl)-4-methyl-1,3-thiazol-2(3H)-ylidene]hydrazono}methyl)phenyl]-N-methyl-1-[4-(trifluoromethoxy)phenyl]-1H-1,2,4-triazol-5-amine] | 100 | 100 | 83 |  |  |  |  |
| CC(C)c1ccccc1N1C(=O)CSC1=NN=Cc1ccc(-c2nc(N)n(-c3ccc(OC(F)(F)F)cc3)n2)cc1 [Compound I-056] |  | 100 | 100 |  | 90 |  | pest or weed control at 500 g/ha (Diabrotica balteata): 100% |
| CCO[C@@H]1[C@@H](OC)[C@H](C)O[C@@H](OC(=O)Nc2ccc(-c3nc(NC(=O)C4CC4)n(-c4ccc(OC(F)(F)C(F)(F)F)cc4)n3)cc2)[C@@H]1OC [Compound I-002] |  |  | 100 | 100 |  | 83 | efficacy (kill) (Musca domestica): 90%; pest or weed control at 500 g/ha (Phaedon cochleariae): 100%; pest or weed control at 500 g/ha (Spodoptera frugiperda): 100% |
| CNc1nc(-c2ccc(NC(=O)N=C3SCC(=O)N3c3cc(C)ccc3C(C)C)cc2)nn1-c1ccc(OC(F)(F)C(F)(F)F)cc1 [Compound I-079] | 100 | 100 | 100 |  |  |  |  |
| CNc1nc(-c2cc(F)c(C=NN=C3SCC(=O)N3c3ccccc3C(C)C)cc2F)nn1-c1ccc(OC(F)(F)F)cc1 [Compound I-111] |  | 100 | 100 |  | 100 |  |  |
| CNc1nc(-c2ccc(C=NN=C3SCCCN3c3ccccc3C(C)C)cc2)nn1-c1ccc(OC(F)(F)F)cc1 [Compound I-117] | 100 | 100 | 100 |  |  |  |  |
| CNc1nc(-c2ccc(C=NNC(=S)Nc3ccccc3C(C)C)c(F)c2)nn1-c1ccc(OC(F)(F)F)cc1 [Compound I-104] |  | 100 | 100 |  | 90 |  |  |
